The record followed here is patent US20060160869A1, “Ubiquitin ligase inhibitors” (Rigel Pharmaceuticals, Inc., priority 2005, published 2006).

In data set [1] the target is E3 (His-APC11/APC2, "APC") (Homo sapiens, UniProt Q9NYG5+Q9UJX6). The data set is described as follows: Plate-based E3 ligase assay (APC FLAG), auto-ubiquitination. The data set is classed as biochemical. The settings on record: Table 2; read-out: APC IC50. The procedure:
(§1) E3 (His-APC11/APC2—“APC”) auto-ubiquitination was measured as described in U.S. patent application Ser. No. 09/826,312 (Publication No. US-2002-0042083-A1), which is incorporated herein in its entirety. Details of the protocol are described below. Activity in the presence of the compound was determined relative to a parallel control in which only DMSO was added. Values of the IC50 were typically determined using 6 or 8 different concentrations of the compound, although as few as 2 concentrations may be used to approximate the IC50 value.
(§2) Nickel-coated 96-well plates (Pierce 15242) were blocked for 1 hour with 100 μl of blocking buffer at room temperature. The plates were washed 4 times with 225 μl of 1×PBS and 80 μl of the reaction buffer were added that contained 100 ng/well of Flag-ubiquitin. To this, 10 μl of the test compound diluted in DMSO were added. After the test compound was added, 10 μl of E1 (human), E2 (Ubch5c), and APC in Protein Buffer was added to obtain a final concentration of 5 ng/well of E1, 20 ng/well: of E2 and 100 ng/well of APC. The plate were shaken for 10 minutes and incubated at room temperature for 1 hour. After incubation, the plates were washed 4 times with 225 μl of 1×PBS and 100 μl/well of Antibody Mix were added to each well. The plates were incubate at room temperature for another hour after which they were washed 4 times with 225 μl of 1×PBS and 100 μl/well of Lumino substrate were added to each well. The luminescence was measured by using a BMG luminescence microplate reader.
APC Plate/gel is Anaphase Promoting Complex. This protein also belongs to E3 RING finger ligase group.

For a further data set, the target named is MDM2 (Homo sapiens, UniProt Q00987). Kind of data set: Plate-based E3 ligase assay, MDM2 autoubiquitination (MDM2-FLAG). It is filed as biochemical. The settings on record: Table 2; read-out: MDM2 IC50. Here is the method:
as §1, §2
In similar manner, autoubiquitination of the E3 MDM2 was determined (MDM2-FLAG). Further instruction in such assays can be found in U.S. patent application Ser. No. 10/108,767 (Publication No. US-2003-0104474 A1), which is incorporated herein in its entirety.
hMDM2 Plate/Gel is Mouse double minute 2, human homolog. This protein belongs to the E3 RING finger ligase group.

Data set [2] concerns p53 reporter system in p53 wild-type A549 cell line. The data set is described as follows: p53-dependent transcription reporter assay, A549RE. The note with it: p53 +ve cell type; maximal fold induction over DMSO control. The data set is classed as cell-based. Here is the method: (§3) Stable lines of U2OS (osteosarcoma; Wild-type p53 positive), HCT116 (colorectal carcinoma; Wild-type p53 positive) and H1299 (lung non-small cell carcinoma; p53 null) carrying p53-dependent transcriptional regulatory element linked to a Luciferase reporter gene and H1299 carrying a 5′-regulatory region of GADD45 linked to Luciferase were used.
(§4) Day 2: The compounds or control drugs were diluted in dimethyl sulfoxide (DMSO) and added to the wells to create 6-points/2-fold serial dilution (20, 10, 5, 2.5, 1.25, 0.625 and 0 μM) for each compound. The DMSO concentration was adjusted to 0.2% in all wells.
(§5) Day 3: Twenty to 24 hours after compound addition, cells were twice washed with PBS and lysed with Glo-lysis buffer (100 μl/well, Promega; Cat#E2661). Plates were subjected to gentle agitation on a table-top shaker for 5 minutes at room temperature. Fifty μl of lysate was transferred to an assay plate to test for luciferase activity and mixed with 2× assay buffer (Promega; Cat# E1483). The reaction mixture was left at room temperature for 2 minutes and then luminescence was measure by a luminometer (Victor™, 1420 Multilabel Counter, Wallac).
(§6) Data analysis was done on Excel software (Microsoft). Values in Table 4 represent maximal fold induction over negative control (DMSO only) and are the mean of at least duplicate experiments.
A549RE is a p53 wild-type A549 cell line containing p53 reporter system. If the compound acts against MDM2, p53 activity increases.

The test system of data set [3] is p53 reporter system in p53 wild-type U2OS cell line. The data set is described as follows: p53-dependent transcription reporter assay, U20SRE. It is filed as cell-based. The note with it: p53 +ve cell type; maximal fold induction over DMSO control.
Text: as §3
Day 1: Cells were re-plated into 96-well plates at suitable densities to make 50-60% confluence on Day 2. The plating densities are as follows: 7.5×10^3 cells/well (or 2.5×10^4 cells/cm^2) for U2OS; 1.5×10^4 cells/well (or 5.0×10^4 cells/cm^2) for HCT116; and 1.0×10^4 cells/well (or 3.3×10^4 cells/cm^2) for H1299.
as §4, §5, §6
U20SRE is a p53 wild-type U2OS cell line containing p53 reporter system. If the compound acts against MDM2, p53 activity increases.

Sequence of MDM2 (Q00987 whole entry): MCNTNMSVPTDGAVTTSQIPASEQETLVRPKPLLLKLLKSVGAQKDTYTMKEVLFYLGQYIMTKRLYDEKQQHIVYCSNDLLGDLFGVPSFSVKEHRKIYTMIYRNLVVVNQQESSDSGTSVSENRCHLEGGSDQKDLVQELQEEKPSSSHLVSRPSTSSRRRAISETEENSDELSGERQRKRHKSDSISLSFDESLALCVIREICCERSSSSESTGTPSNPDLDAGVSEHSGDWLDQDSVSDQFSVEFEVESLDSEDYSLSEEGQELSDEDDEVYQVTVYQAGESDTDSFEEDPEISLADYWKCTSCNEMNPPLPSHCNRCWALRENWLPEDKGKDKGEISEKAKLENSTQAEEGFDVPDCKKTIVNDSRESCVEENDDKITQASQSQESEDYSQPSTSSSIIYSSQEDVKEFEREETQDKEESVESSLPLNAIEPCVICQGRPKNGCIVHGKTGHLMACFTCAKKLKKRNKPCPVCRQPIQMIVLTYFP
Sequence of E3 (His-APC11/APC2, "APC") (Q9NYG5 whole entry): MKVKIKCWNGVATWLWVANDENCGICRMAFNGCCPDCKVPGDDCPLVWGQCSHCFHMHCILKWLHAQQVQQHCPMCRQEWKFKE
Sequence of E3 (His-APC11/APC2, "APC") (Q9UJX6 whole entry): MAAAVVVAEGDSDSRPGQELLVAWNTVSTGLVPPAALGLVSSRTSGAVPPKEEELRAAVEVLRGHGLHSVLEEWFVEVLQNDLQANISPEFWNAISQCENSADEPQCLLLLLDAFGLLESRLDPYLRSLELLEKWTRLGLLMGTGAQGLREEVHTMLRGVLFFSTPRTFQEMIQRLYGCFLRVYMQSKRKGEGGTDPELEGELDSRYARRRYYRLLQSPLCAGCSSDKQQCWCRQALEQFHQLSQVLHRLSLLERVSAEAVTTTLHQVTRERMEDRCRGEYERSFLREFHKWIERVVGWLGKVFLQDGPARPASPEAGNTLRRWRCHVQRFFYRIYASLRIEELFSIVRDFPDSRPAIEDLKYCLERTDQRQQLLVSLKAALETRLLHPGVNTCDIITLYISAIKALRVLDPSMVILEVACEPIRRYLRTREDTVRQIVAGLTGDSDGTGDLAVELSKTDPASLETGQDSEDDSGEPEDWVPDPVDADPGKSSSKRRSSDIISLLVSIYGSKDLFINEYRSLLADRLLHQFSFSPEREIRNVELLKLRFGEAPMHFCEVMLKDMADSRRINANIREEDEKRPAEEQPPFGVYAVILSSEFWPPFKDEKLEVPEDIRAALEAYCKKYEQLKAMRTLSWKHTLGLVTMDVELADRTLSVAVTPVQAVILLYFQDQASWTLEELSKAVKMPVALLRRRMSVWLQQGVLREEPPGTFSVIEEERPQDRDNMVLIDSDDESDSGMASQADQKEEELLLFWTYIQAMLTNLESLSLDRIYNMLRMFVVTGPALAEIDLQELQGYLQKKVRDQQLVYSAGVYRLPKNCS

Turning to `CC(C)N(CCN(Cc1ccc(C(=O)N2CCNCC2)cc1)c1nc(-c2cccc([N+](=O)[O-])c2)cs1)C(C)C` [compound 233], the IC50 (in data set [1]; on MDM2) was ≥ 20 µM throughout. Moreover, the “Fold Induction of p53 activity, A549RE” value in data set [2] is “a (a means 2 or less)”. In data set [3], the “Fold Induction of p53 activity, U20SRE” value was “a (a means 2 or less)”.
